Where two headings read alike, the source gives them in different places.
Experiments:
[1] = system: P. falciparum 3D7 parasites; test: P. falciparum growth inhibition assay, 2-cycle (120 h treatment), delayed-death screen and dose-response; type: cell-based, Plasmodium falciparum; details: for activity at 2 µg/mL: Plasmodium falciparum
[2] = system: P. falciparum 3D7 parasites; test: P. falciparum growth inhibition assay, 1-cycle (72 h treatment), SYBR DNA staining (library screen at 2 μg/mL and dose-response); type: cell-based, Plasmodium falciparum; details: for activity at 2 µg/mL: Plasmodium falciparum
[3] = system: T. gondii RH strain (RH-Tub-eYFP) tachyzoites; test: microbe, parasite or virus in culture; type: cell-based, Toxoplasma gondii
[4] = 3D7, P. falciparum, 120 h, parasite screen 2 μg/mL, % growth, replicate 1, read-out: Pf_120h_%Growth_Rep1
[5] = 3D7, P. falciparum, 120 h, parasite screen 2 μg/mL, % growth, replicate 2, read-out: Pf_120h_%Growth_Rep2
[6] = 3D7, P. falciparum, 72 h, parasite screen 2 μg/mL, % growth, replicate 1, read-out: Pf_72h_%Growth_Rep1
[7] = 3D7, P. falciparum, 72 h, parasite screen 2 μg/mL, % growth, replicate 2, read-out: Pf_72h_%Growth_Rep2
[8] = T. gondii, 72 h, 2 μg/mL; values are growth (% of control)
[9] = library screen at 2 μg/mL, 120 h, % growth, replicate 1
[10] = library screen at 2 μg/mL, 120 h, % growth, replicate 2
[11] = library screen at 2 μg/mL, 72 h, % growth, replicate 1
[12] = library screen at 2 μg/mL, 72 h, % growth, replicate 2

COc1cc(C(=O)O)c2c(c1C)OC(=O)c1c(C)cc(O)c(C=O)c1O2 [Psoromic acid]
activity at 2 µg/mL [1, 4]: 90.8%
activity at 2 µg/mL [1, 5]: 141%
activity at 2 µg/mL [2, 6]: 92.3%
activity at 2 µg/mL [2, 7]: 123%
percent parasite growth at 2 µg/mL ([3]; Toxoplasma gondii, 72 h, T. gondii, 72 h, parasite screen 2 μg/mL, % growth, replicate 1; read-out: Tg_72h_%Growth_Rep1): 127%
percent parasite growth at 2 µg/mL ([3]; Toxoplasma gondii, 72 h, T. gondii, 72 h, parasite screen 2 μg/mL, % growth, replicate 2; read-out: Tg_72h_%Growth_Rep2): 82.8%

CCCCCC1=C/C(=C/c2[nH]c(-c3ccc[nH]3)cc2OC)N=C1C [Prodigiosin]
activity at 2 µg/mL [1, 4]: -0.86%
activity at 2 µg/mL [1, 5]: 19.4%
activity at 2 µg/mL [2, 6]: 5.96%
activity at 2 µg/mL [2, 7]: 4.13%
Mean ([3]; T. gondii, 72 h, 2 μg/mL; mean of both replicates, growth (% of control)): 25.60
Replicate 1 [3, 8]: 39.74
Replicate 2 [3, 8]: 11.46
percent parasite growth at 2 µg/mL ([3]; Toxoplasma gondii; T. gondii, 72 h, parasite screen 2 μg/mL, % growth, replicate 1; read-out: Tg_72h_%Growth_Rep1): 39.7%
percent parasite growth at 2 µg/mL ([3]; Toxoplasma gondii; T. gondii, 72 h, parasite screen 2 μg/mL, % growth, replicate 2; read-out: Tg_72h_%Growth_Rep2): 11.5%

CC1=CCC2CC(CC3(CCC(C)C(C)O3)O2)OC(=O)C2C=C(C)C(=NO)C3OCC(=CC=CC(C)C1)C23O (stereo not shown) [BIA-M1531]
Pf_120h_%Growth_Rep1 ([1]; P. falciparum 3D7, 120 h, parasite screen at 2 μg/mL, % growth, replicate 1): 36.91%
Pf_120h_%Growth_Rep2 ([1]; P. falciparum 3D7, 120 h, parasite screen at 2 μg/mL, % growth, replicate 2): 51.60%
Pf_72h_%Growth_Rep1 ([2]; P. falciparum 3D7, 72 h, parasite screen at 2 μg/mL, % growth, replicate 1): 53.63%
Pf_72h_%Growth_Rep2 ([2]; P. falciparum 3D7, 72 h, parasite screen at 2 μg/mL, % growth, replicate 2): 28.47%
Tg_72h_%Growth_Rep1 ([3]; T. gondii, 72 h, parasite screen at 2 μg/mL, % growth, replicate 1): 75.89%
Tg_72h_%Growth_Rep2 ([3]; T. gondii, 72 h, parasite screen at 2 μg/mL, % growth, replicate 2): 79.64%

COC1=C(O)c2c(O)cc(C)c3c(O)cc(O)c(c23)C1=O [Funalenone]
Pf_120h_%Growth_Rep1 [1, 9]: 97.73%
Pf_120h_%Growth_Rep2 [1, 10]: 107.04%
Pf_72h_%Growth_Rep1 [2, 11]: 89.99%
Pf_72h_%Growth_Rep2 [2, 12]: 108.10%
Tg_72h_%Growth_Rep1 [3, 11]: 131.40%
Tg_72h_%Growth_Rep2 [3, 12]: 92.93%

Cc1cc(O)c2c(c1)C(=O)c1cc(O)cc(O)c1C2=O [Emodin]
activity at 2 µg/mL ([1]; 3D7, library screen at 2 μg/mL, 120 h, % growth, replicate 1, read-out: Pf_120h_%Growth_Rep1): 85.9%
activity at 2 µg/mL ([1]; 3D7, library screen at 2 μg/mL, 120 h, % growth, replicate 2, read-out: Pf_120h_%Growth_Rep2): 114%
activity at 2 µg/mL ([2]; 3D7, library screen at 2 μg/mL, 72 h, % growth, replicate 1, read-out: Pf_72h_%Growth_Rep1): 87.3%
activity at 2 µg/mL ([2]; 3D7, library screen at 2 μg/mL, 72 h, % growth, replicate 2, read-out: Pf_72h_%Growth_Rep2): 86.6%
percent parasite growth at 2 µg/mL ([3]; Toxoplasma gondii, 72 h, library screen at 2 μg/mL, 72 h, % growth, replicate 1; read-out: Tg_72h_%Growth_Rep1): 116%
percent parasite growth at 2 µg/mL ([3]; Toxoplasma gondii, 72 h, library screen at 2 μg/mL, 72 h, % growth, replicate 2; read-out: Tg_72h_%Growth_Rep2): 87.4%

CCC(C=CC1OC(=O)C=CC1C)=CC(C)CC=CC(C)=CC(C)C(=O)C(C)C(O)C(C)CC(C)=CC(=O)O (stereo not shown) [BIA-L1046]
Pf_120h_%Growth_Rep1 ([1]; P. falciparum 3D7, 120 h, library screen at 2 μg/mL, % growth, replicate 1): 2.03%
Pf_120h_%Growth_Rep2 ([1]; P. falciparum 3D7, 120 h, library screen at 2 μg/mL, % growth, replicate 2): 15.00%
Pf_72h_%Growth_Rep1 ([2]; P. falciparum 3D7, 72 h, library screen at 2 μg/mL, % growth, replicate 1): 6.41%
Pf_72h_%Growth_Rep2 ([2]; P. falciparum 3D7, 72 h, library screen at 2 μg/mL, % growth, replicate 2): 2.57%
Tg_72h_%Growth_Rep1 ([3]; T. gondii RH, 72 h, library screen at 2 μg/mL, % growth, replicate 1): 1.37%
Tg_72h_%Growth_Rep2 ([3]; T. gondii RH, 72 h, library screen at 2 μg/mL, % growth, replicate 2): 0.53%

COc1cc(-c2cc3c(c(=O)o2)C[C@]2(O)[C@@]4(C)C(=O)C=CC(C)(C)[C@]4(O)CC[C@@]2(C)O3)cc2c1OCO2 [Territrem A]
activity at 2 µg/mL ([1]; 3D7, 120 h, P. falciparum, 120 h, screen at 2 μg/mL, replicate 1, read-out: Pf_120h_%Growth_Rep1): 6.66%
activity at 2 µg/mL ([1]; 3D7, 120 h, P. falciparum, 120 h, screen at 2 μg/mL, replicate 2, read-out: Pf_120h_%Growth_Rep2): 112%
Mean ([2]; P. falciparum, 72 h, 2 μg/mL, mean of both replicates, growth (% of control)): 49.47
activity at 2 µg/mL ([2]; 3D7, 72 h, P. falciparum, 72 h, screen at 2 μg/mL, replicate 1, read-out: Pf_72h_%Growth_Rep1): 14.3%
activity at 2 µg/mL ([2]; 3D7, 72 h, P. falciparum, 72 h, screen at 2 μg/mL, replicate 2, read-out: Pf_72h_%Growth_Rep2): 84.6%
percent parasite growth at 2 µg/mL ([3]; Toxoplasma gondii, 72 h, T. gondii, 72 h, screen at 2 μg/mL, replicate 1; read-out: Tg_72h_%Growth_Rep1): 104%
percent parasite growth at 2 µg/mL ([3]; Toxoplasma gondii, 72 h, T. gondii, 72 h, screen at 2 μg/mL, replicate 2; read-out: Tg_72h_%Growth_Rep2): 88.7%

CC(=O)N[C@H](COC(C)=O)[C@H](O)c1ccc([N+](=O)[O-])cc1 [Corynecin IV]
Pf_120h_%Growth_Rep1 ([1]; P. falciparum, 120 h, screen at 2 μg/mL, replicate 1): 80.18%
Pf_120h_%Growth_Rep2 ([1]; P. falciparum, 120 h, screen at 2 μg/mL, replicate 2): 96.02%
Pf_72h_%Growth_Rep1 ([2]; P. falciparum, 72 h, screen at 2 μg/mL, replicate 1): 87.87%
Pf_72h_%Growth_Rep2 ([2]; P. falciparum, 72 h, screen at 2 μg/mL, replicate 2): 87.15%
Tg_72h_%Growth_Rep1 ([3]; T. gondii, 72 h, screen at 2 μg/mL, replicate 1): 146.78%
Tg_72h_%Growth_Rep2 ([3]; T. gondii, 72 h, screen at 2 μg/mL, replicate 2): 106.28%

CC(=O)NCCc1c[nH]c2ccc(O)cc12 [Acetylserotonin, N-]
Pf_120h_%Growth_Rep1 [1, 9]: 81.51%
Pf_120h_%Growth_Rep2 [1, 10]: 80.80%
Pf_72h_%Growth_Rep1 [2, 11]: 83.62%
Pf_72h_%Growth_Rep2 [2, 12]: 79.72%
Tg_72h_%Growth_Rep1 [3, 11]: 128.90%
Tg_72h_%Growth_Rep2 [3, 12]: 97.07%

Reference: paper PMC12396409, “Screening and hit evaluation of a microbial metabolite library against the pathogenic Plasmodium falciparum and Toxoplasma gondii parasites” (International Journal for Parasitology: Drugs and Drug …, 2025)
